From ChEMBL document CHEMBL3046851, “Synthesis of analogues of monic acids A and C: Potential herbicides and inhibitors of isoleucyl tRNA synthetase” (Bioorg Med Chem Lett, 1996)
Activity calls are given as the source filed them. The rule behind the calls is not given here.

How the values were obtained:
Spinacia oleracea = experiment: Inhibition of Spinacia oleracea (spinach) chloroplast isoleucyl tRNA synthetase at 1 uM
[1] = Herbicidal activity against broadleaf weeds; format: functional
Poaceae = experiment: Herbicidal activity against Poaceae (grass) weeds; format: functional, organism-based

Row | SMILES | inhibition (Spinacia oleracea) | Activity [1] | Activity (Poaceae)
1 | C/C(=C\C(=O)OCCCCCCCCC(=O)O)C[C@@H]1OC[C@H](C[C@@H]2O[C@H]2[C@@H](C)[C@H](C)O)[C@@H](O)[C@H]1O | 75% | – | –
2 | COC(=O)/C=C(/C)Cc1cccc(C[C@@H]2O[C@H]2[C@@H](C)[C@H](C)O)c1 | inactive | inactive | inactive
3 | CCOC(=O)c1cccc(-c2cccc(C[C@@H]3O[C@H]3[C@@H](C)[C@H](C)O)c2)c1 | inactive | inactive | inactive
4 | COC(=O)/C=C(/C)Cc1cccc(C[C@H]2O[C@@H]2[C@@H](C)[C@H](C)O)c1 | inactive | inactive | inactive
5 | COC(=O)/C=C(\C)Cc1cccc(C/C=C/[C@@H](C)[C@H](C)O)c1 | inactive | inactive | inactive
6 | CCOC(=O)c1cccc(-c2cccc(C/C=C/[C@@H](C)[C@H](C)O)c2)c1 | inactive | inactive | inactive
7 | COC(=O)/C=C(\C)Cc1cccc(C[C@@H]2O[C@H]2[C@@H](C)[C@H](C)O)c1 | inactive | inactive | inactive
8 | CCOC(=O)/C=C(/C)C[C@H]1OC[C@H](C/C=C/[C@@H](C)[C@H](C)O)CO1 | inactive | inactive | inactive
9 | CCOC(=O)/C=C(\C)C[C@H]1OC[C@@H](C/C=C/[C@@H](C)[C@H](C)O)CO1 | inactive | inactive | inactive
10 | CCOC(=O)c1cccc(-c2cccc(C[C@H]3O[C@@H]3[C@@H](C)[C@H](C)O)c2)c1 | inactive | inactive | inactive
11 | COC(=O)/C=C(\C)Cc1cccc(C[C@H]2O[C@@H]2[C@@H](C)[C@H](C)O)c1 | inactive | inactive | inactive
12 | COC(=O)/C=C(/C)Cc1cccc(C/C=C/[C@@H](C)[C@H](C)O)c1 | inactive | inactive | inactive
13 | CCOC(=O)/C=C(\C)C[C@H]1OC[C@H](C/C=C/[C@@H](C)[C@H](C)O)CO1 | inactive | inactive | inactive
